Laboratory results published in ChEMBL document CHEMBL3352398, “2-(2-Bromophenyl)-formononetin and 2-heptyl-formononetin are PPARγ partial agonists and reduce lipid accumulation in 3T3-L1 adipocytes” (Bioorg Med Chem, 2014).
Calls of active or inactive are those of the source. No cut-off for these calls is given here.

Legend:
[1] = tested on: 3T3-L1; assay: Activation of AMPK in mouse 3T3L1 cells assessed as AMPK phosphorylation at 50 uM after 5 to 48 hrs by Western blotting analysis; format: cell-based
[2] = tested on: 3T3-L1; assay: Effect on adipogenesis in mouse 3T3L1 cells in DI media assessed as reduction in lipid accumulation at 50 uM measured on day 8 by fluorescence-based AdipoRed assay; format: functional, cell-based
[3] = Cytotoxicity against mouse 3T3L1 cells assessed as effect on lactate dehydrogenase release at 5 to 50 uM measured on day 2; format: cell-based; conditions: 3t3-l1, 50 µM
[4] = tested on: 3T3-L1; assay: Reduction in lipogenesis in mouse 3T3L1 cells assessed as down regulation of Scd1 gene exression by real time-qPCR analysis; format: functional, cell-based
[5] = tested on: 3T3-L1; assay: Effect on adipogenesis in mouse 3T3L1 cells in DI media assessed as increase in lipid accumulation at <25 uM after 8 days by fluorescence-based AdipoRed assay; format: functional, cell-based
[6] = tested on: 3T3-L1; assay: Effect on adipogenesis in mouse 3T3L1 cells assessed as reduction in Adipoq gene expression at 5 to 50 uM after 8 days by real time quantitative PCR analysis relative to vehicle-treated control; format: functional, cell-based
[7] = Cytotoxicity against mouse 3T3L1 cells assessed as effect on lactate dehydrogenase release at 5 to 50 uM measured on day 8; format: cell-based; conditions: 3t3-l1, 50 µM
[8] = tested on: 3T3-L1; assay: Effect on adipogenesis in mouse 3T3L1 cells in DI media assessed as increase in fat-laden mature adipocytes at <25 uM after 8 days by oil red o assay; format: functional, cell-based
[9] = tested on: 3T3-L1; assay: Reduction of adipogenesis in mouse 3T3L1 cells assessed as decrease in lipid accumulation measured on day 8 by fluorescence-based AdipoRed assay; format: functional, cell-based
[10] = biological target: T1, Peroxisome proliferator-activated receptor gamma (Homo sapiens) (UniProt P37231); assay: Competitive binding to human GST-tagged PPAR-gamma at <=100 uM by TR-FRET assay
T1 sequence (whole entry): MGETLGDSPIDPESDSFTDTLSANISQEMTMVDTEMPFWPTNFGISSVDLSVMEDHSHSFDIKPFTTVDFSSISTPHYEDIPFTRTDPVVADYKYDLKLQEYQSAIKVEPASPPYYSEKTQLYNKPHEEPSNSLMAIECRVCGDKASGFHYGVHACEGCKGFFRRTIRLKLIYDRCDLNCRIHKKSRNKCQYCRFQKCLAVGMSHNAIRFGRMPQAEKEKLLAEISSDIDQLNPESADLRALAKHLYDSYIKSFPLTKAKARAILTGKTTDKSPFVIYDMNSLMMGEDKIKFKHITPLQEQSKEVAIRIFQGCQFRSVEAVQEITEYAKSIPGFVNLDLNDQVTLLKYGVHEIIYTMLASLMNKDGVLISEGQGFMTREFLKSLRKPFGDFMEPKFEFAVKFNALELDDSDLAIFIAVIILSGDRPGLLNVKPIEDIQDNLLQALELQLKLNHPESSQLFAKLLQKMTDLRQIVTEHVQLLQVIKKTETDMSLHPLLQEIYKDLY

[11] = tested on: 3T3-L1; assay: Effect on adipogenesis in mouse 3T3L1 cells assessed as increase in Srebf1 gene expression at 5 to 50 uM after 8 days by real time quantitative PCR analysis relative to vehicle-treated control; format: functional, cell-based
[12] = Effect on adipogenesis in mature mouse 3T3L1 cells assessed as upregulation of Sirt1 gene expression; format: functional, cell-based; conditions: 3T3-L1
[13] = tested on: 3T3-L1; assay: Reduction in lipogenesis in mouse 3T3L1 cells assessed as down regulation of Fasn gene exression by real time-qPCR analysis; format: functional, cell-based
[14] = Cytotoxicity against mouse 3T3L1 cells assessed as LDH release at 50 uM after 48 hrs; format: cell-based; conditions: 3t3-l1, 48 h
[15] = tested on: 3T3-L1; assay: Effect on adipogenesis in mouse 3T3L1 cells assessed as reduction in Fabp4 gene expression at 5 to 50 uM after 4 days by real time quantitative PCR analysis relative to vehicle-treated control; format: functional, cell-based
[16] = biological target: T2, Peroxisome proliferator-activated receptor alpha (Homo sapiens) (UniProt Q07869); assay: Agonist activity at PPAR-alpha (unknown origin) by transactivation assay
T2 sequence (whole entry): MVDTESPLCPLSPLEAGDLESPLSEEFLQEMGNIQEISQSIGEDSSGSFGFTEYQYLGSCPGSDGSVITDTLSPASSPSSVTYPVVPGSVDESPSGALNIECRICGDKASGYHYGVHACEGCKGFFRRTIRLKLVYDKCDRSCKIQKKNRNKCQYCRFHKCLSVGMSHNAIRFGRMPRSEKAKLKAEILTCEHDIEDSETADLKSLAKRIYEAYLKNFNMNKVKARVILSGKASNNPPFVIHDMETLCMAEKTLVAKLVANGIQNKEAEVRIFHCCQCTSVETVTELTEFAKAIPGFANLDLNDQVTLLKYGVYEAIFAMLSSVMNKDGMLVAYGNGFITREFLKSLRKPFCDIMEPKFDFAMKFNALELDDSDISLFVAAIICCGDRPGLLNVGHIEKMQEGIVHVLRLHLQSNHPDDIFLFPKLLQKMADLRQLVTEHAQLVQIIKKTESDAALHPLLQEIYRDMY

[17] = tested on: 3T3-L1; assay: Reduction in lipogenesis in mouse 3T3L1 cells assessed as down regulation of Srebf1 gene exression by real time-qPCR analysis; format: functional, cell-based
[18] = tested on: 3T3-L1; assay: Effect on adipogenesis in mouse 3T3L1 cells assessed as reduction in Adipoq gene expression at 5 to 50 uM after 4 days by real time quantitative PCR analysis relative to vehicle-treated control; format: functional, cell-based
[19] = tested on: 3T3-L1; assay: Effect on adipogenesis in mouse 3T3L1 cells assessed as reduction in Fabp4 gene expression at 5 to 50 uM after 8 days by real time quantitative PCR analysis relative to vehicle-treated control; format: functional, cell-based
[20] = tested on: 3T3-L1; assay: Reduction in lipogenesis in mouse 3T3L1 cells assessed as down regulation of Acaca gene exression by real time-qPCR analysis; format: functional, cell-based
[21] = tested on: 3T3-L1; assay: Effect on adipogenesis in mouse 3T3L1 cells in DI media assessed as reduction in fat-laden mature adipocytes at 50 uM after 8 days by oil red o assay; format: functional, cell-based
[22] = tested on: 3T3-L1; assay: Induction of lipolysis in mouse 3T3L1 cells assessed as increase in glycerol level at 50 uM after 48 hrs by UV-Vis spectrophotometry; format: functional
[23] = tested on: 3T3-L1; assay: Reduction in triglyceride release in mouse 3T3L1 cells at 50 uM after 48 hrs by oil red o assay; format: functional, cell-based
[24] = tested on: 3T3-L1; assay: Effect on adipogenesis in mouse 3T3L1 cells assessed as reduction in Pparg gene expression at 5 to 50 uM after 8 days by real time quantitative PCR analysis relative to vehicle-treated control; format: functional, cell-based

For CCCCCCCc1oc2cc(O)ccc2c(=O)c1-c1ccc(OC)cc1, the Activity [1] was “inactive”, the Activity [2] was “Active” and the Activity [3] was “Non-toxic”. For the same molecule, the Activity [4] was “Active”, the Activity [5] was “Active” and the Activity [6] was “Dose-dependent effect”. For the same molecule, the Activity [7] was “Non-toxic”, the Activity [8] was “Active” and the Activity [9] was “Dose-dependent effect”. For the same molecule, the Activity [10] was “Active”, the Activity [11] was “Dose-dependent effect” and the Activity [12] was “inactive”. For the same molecule, the Activity [13] was “Active”, the Activity [14] was “Toxic” and the Activity [15] was “inactive”. For the same molecule, the Activity [16] was “inactive”, the Activity [17] was “Active” and the Activity [18] was “Dose-dependent effect”. For the same molecule, the Activity [19] was “inactive”, the Activity [20] was “Active” and the Activity [21] was “Active”. For the same molecule, the “fold change (FC)” value [22] was 2, the Activity [23] was “Active” and the Activity [24] was “Dose-dependent effect”.
